Data: patent publication US12194024B2, “Pharmaceutical composition of MDM2 inhibitor and use thereof for preventing and/or treating disease” (ASCENTAGE PHARMA (SUZHOU) CO., LTD., priority 2019, dated 2025)

Legend:
[1] = tested on: human OCI-AML-3 AML xenograft tumor; assay: Subcutaneous OCI-AML-3 AML mouse xenograft tumor model; type: in vivo, NOD SCID mice; conditions: Compound 2 50 mg/kg orally q2d, Azacitidine 2 mg/kg i.v., Decitabine 1 mg/kg i.v.
Description: For subcutaneous model, OCI-AML-3 cells (1×10^6) are injected subcutaneously into the right side of the abdomen of 6- to 8-week-old mice. About 10 days after the cell inoculation, the mice are randomly divided into groups based on the primary tumor size achieving about 100-150 mm^3 of average tumor volume.
(§1) The tumor diameter is measured twice using a vernier caliper each week. The computational formula of the tumor volume (TV) is: TV=a×b^2/2. In the computational formula, a and b represent the length and width of the tumor measurement respectively. The computational formula of the relative tumor volume (RTV) is: RTV=VtN1. In the computational formula, V1 is the tumor volume when being grouped and administered, and Vt is the tumor volume when being measured at a certain day after the administration.
The tumor remission rate (%) is derived by dividing the number of SD (Stable Disease), PR (Partial response) and CR (Complete response) appearing in the tumor bearing mice after treatment by the total number of mice in the group×100%.
The synergistic analysis uses the following formula (reference can be made to Gould S E et al., Translational value of mouse models in oncology drug development, Nature medicine, 2015 21, 431-439): synergistic factor=((A/C)×(B/C))/(AB/C); A=RTV value of the A drug alone group; B=RTV value of the B drug alone group; C=RTV value of the vehicle control group, AB=RTV value of the AB combined group (Clarke R., Issues in experimental design and endpoint analysis in the study of experimental cytotoxic agents in vivo in breast cancer and other models[J], Breast Cancer Research & Treatment, 1997, 46 (2-3):255-278).
For subcutaneous model, OCI-AML-3 cells (1×10^6) are injected subcutaneously into the right side of the abdomen of 6- to 8-week-old mice. About 10 days after the cell inoculation, the mice are randomly divided into groups based on the primary tumor size achieving about 100-150 mm^3 of average tumor volume. Compound 2 is administered alone or in combination (50 mg/kg, is taken orally, every other day for 15 days) and Aza (2 mg/kg, intravenous injection each day for 7 days) or Dec (1 mg/kg, intravenous injection each day for 7 days). The tumor volume is measured twice using a vernier caliper each week and is represented by following formula in mm^3: V=0.5a×b^2; in the formula, a and b are the long diameter and short diameter of the tumor respectively. […] RTV=VtN1; wherein V1 and Vt are the average tumor volume on the first day (day 1) in the treatment, and the average tumor volume of a certain time point (day t) respectively.
Azacitidine is administered following 2 mg/kg, caudal vein injection, qd×7d, drug withdrawal 7 days, then qd×2 day regimens for seven days (corresponding to the number 68 regimen in table 7).

NCI-H2122 = assay: CTG cell proliferation experiment, NSCLC; type: cell-based; conditions: Homo sapiens; NCI-H2122, STK11 and KRAS co-mutated; 72 hours
Description: (§2) For the combined experiment, the final volume of 2 test substances is 5 μl/well.
(§3) The nonlinear regression data analysis method of Graphpad Prism 6.0 software ([…]) is used for calculating IC50.
(§4) For the combined experiment, the average fluorescence value of the 3 repeated wells of the single drug control is normalized for calculating cell survival rate.

NCI-H460 = assay: CTG cell proliferation experiment, NSCLC; type: cell-based; conditions: Homo sapiens; NCI-H460, STK11 and KRAS co-mutated; 72 hours
Description: as §2, §3, §4

A549 = assay: CTG cell proliferation experiment, NSCLC; type: cell-based; conditions: Homo sapiens; A549, STK11 and KRAS co-mutated; 72 hours
Description: as §2, §3, §4

HL-60 = assay: CellTiter-Glo (CTG) cell proliferation experiment; type: cell-based; conditions: Homo sapiens, TP53 Del, 72 hours, read-out: IC50 values, nM (Mean ± SD, n = 2 or 3)
[2] = tested on: human A375 cutaneous melanoma xenograft tumor; assay: Subcutaneous A375 cutaneous melanoma xenograft model; type: in vivo, BALB/c Nude mice
From the text: The subcutaneous xenograft tumor model of human tumor immuno-deficient mice is established by the cell inoculation method (reference can be made to Gould S E et al., Translational value of mouse models in oncology drug development, Nature medicine, 2015 21, 431-439, and Souers A J et al., ABT-199, a potent and selective BCL-2 inhibitor, achieves antitumor activity while sparing platelets, Nature medicine, 2012 19.202-208): tumor cells at logarithmic phase are collected, then are resuspended in 1×PBS after being counted, the concentration of the cell suspension is adjusted to 2.5-5×10^7/mL. Tumor cells are subcutaneously inoculated to right-side back of the immuno-deficient mice using a 1 mL syringe (4th needle) at 5-10×10^6/0.2 mL/mouse (experimental animals are purchased from Beijing Vital River Laboratory Animal Technology Co., Ltd. SCXK (Beijing) 2016-0006). All the experimental operations of animals strictly abide by the usage and management standard of experimental animals of GenePharma Co., Ltd. and Suzhou Yasheng Pharmaceutical Co., Ltd. The calculations of related parameters make reference to “Technical guidelines for non-clinical research of cytotoxic anti-tumor drugs” of China CFDA.
as §1
The evaluation index of the anti-tumor activity is the relative tumor proliferation rate T/C (%), and the computational formulae respectively are: the relative tumor proliferation rate T/C (%)=(TRTV/CRTV)×100%, TRTV is the RTV of the treatment groups, and CRTV is the RTV of the vehicle control groups. The tumor remission rate (%) is derived by dividing the number of SD (Stable Disease), PR (Partial response) and CR (Complete response) appearing in the tumor bearing mice after treatment by the total number of mice in the group×100%. […]

CCN1[C@@H](C(=O)NC23CCC(C(=O)O)(CC2)CC3)[C@H](c2cccc(Cl)c2F)[C@]2(C(=O)Nc3cc(Cl)ccc32)C12CCCCC2 [Compound 2]
T/C value (%) (d15) [1]: 84.8% | Relative tumor volume (RTV, Mean ± SEM) ([1]; d15, vehicle 16.5 ± 4.1): 14.0 ± 2.7 | IC50 (NCI-H2122): 0.079 µM | IC50 (NCI-H460): 0.33 µM | IC50 (A549): 0.033 µM | IC50 (HL-60): 2560 ± 582 nM | T/C (%) @ D18 ([2]; Compound 2 50 mg/kg PO QD × 7D, Trametinib 1 mg/kg, Dabrafenib 30 mg/kg PO QD × 21D): 58.25% | RTV @ D18 (Mean ± SEM) ([2]; Compound 2 50 mg/kg PO QD × 7D, Trametinib 1 mg/kg, Dabrafenib 30 mg/kg PO QD × 21D, vehicle 17.36 ± 1.33): 10.11 ± 1.83 | DCR (%) ([2]; disease control rate, CR, PR or SD by mRECIST): 0% | ORR (%) ([2]; objective response rate, CR or PR by mRECIST): 0%
